Values of other authors, collected in patent US20200030399A1, “HERBAL COMPOSITIONS OF CALIFORNIA POPPY AND METHOD FOR THE TREATMENT OF SLEEP AND DREAM-RELATED DISORDERS” (MONDIAS NATURELS INC., priority 2017, published 2020).

Columns and labels:
[1] = system: stereotyped behaviour effects of dexamphetamine; conditions: mice
[2] = system: dexamphetamine produced mortality; conditions: mice
pentetylenetetrazole = conditions: mice
myorelaxant effects = conditions: mice
[3] = system: anticholinergic effects of Oxotremorine; conditions: mice
acetic acid writhing = conditions: mice; doses not given; dose-response for the extract
[4] = system: reserpine-induced ptosis, akinesia or hypothermia; conditions: mice

CN(C)CCCN1c2ccccc2Sc2ccc(Cl)cc21 [Chlorpromazine]
stereotyped behaviour effects of dexamphetamine [1]: significantly decreased | protective effect against dexamphetamine produced mortality [2]: a protective effect was observed

O=C(O)C1N=C(c2ccccc2)c2cc(Cl)ccc2NC1=O (centres unmarked) [Clorazepate, Clorazepate dipotassium]
anticonvulsant effects (pentetylenetetrazole): Dose-dependent anticonvulsant and myorelaxant effects | myorelaxant effects (myorelaxant effects): Dose-dependent anticonvulsant and myorelaxant effects

CN(C)CCCN1c2ccccc2CCc2ccccc21 [Imipramine]
effect against the anticholinergic effects of Oxotremorine [3]: significantly reduced

CC(=O)Oc1ccccc1C(=O)O [acetylsalicylic acid]
Protection against writing (acetic acid writhing) (acetic acid writhing): 60%

CN(C)CCC=C1c2ccccc2CCc2ccccc21 [amitryptiline]
effect against reserpine-induced ptosis, akinesia or hypothermia [4]: significantly reduced ptosis and hypothermia

CC(=O)Nc1ccc(O)cc1 [paracetamol]
Protection against writing (acetic acid writhing) (acetic acid writhing): 60%
